Results from PubChem BioAssay (NCI).
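How tested: cells in 96-well plates exposed to compound for 48 hours at five concentrations. Here, GI50 denotes the concentration required for 50% inhibition of growth. At the TGI there is no net growth.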

How the values were obtained:
Assay in all cases: NCI anticancer screen, dose series, 48 h
RXF-631 renal = tested on: RXF-631 renal
DMS 273 small cell lung = tested on: DMS 273 small cell lung
LXFL 529 NSCLC = tested on: LXFL 529 NSCLC
HOP-18 NSCLC = tested on: HOP-18 NSCLC
SNB-78 CNS = tested on: SNB-78 CNS
DLD-1 colon = tested on: DLD-1 colon
XF 498 CNS = tested on: XF 498 CNS
DMS 114 small cell lung = tested on: DMS 114 small cell lung
MDA-N = tested on: MDA-N

| Structure (SMILES) | TGI (RXF-631 renal) | TGI (DMS 273 small cell lung) | TGI (LXFL 529 NSCLC) | TGI (HOP-18 NSCLC) | TGI (SNB-78 CNS) | TGI (DLD-1 colon) | TGI (XF 498 CNS) | TGI (DMS 114 small cell lung) | TGI (MDA-N) | GI50 (LXFL 529 NSCLC) | GI50 (RXF-631 renal) | GI50 (DMS 273 small cell lung) | GI50 (HOP-18 NSCLC) | GI50 (SNB-78 CNS) | GI50 (DLD-1 colon) | GI50 (DMS 114 small cell lung) |
| --- | --- | --- | --- | --- | --- | --- | --- | --- | --- | --- | --- | --- | --- | --- | --- | --- |
| CC(C)(C)c1cc(C(OCCl)(C(F)(F)F)C(F)(F)F)c2c(c1)C(C(F)(F)F)(C(F)(F)F)OC21c2ccccc2C(=O)c2ccccc21 | > 100 µM | > 100 µM | > 100 µM | > 100 µM | > 100 µM | > 100 µM | > 100 µM | > 100 µM | – | – | – | – | – | – | – | – |
| CN(C)CCNC(=O)c1cccc2cc3ccc4ccccc4c3nc12 | – | 0.163 µM | 0.665 µM | 0.665 µM | 12.5 µM | 0.817 µM | 0.237 µM | – | – | – | – | – | – | – | – | – |
| O=C(O)Cn1ccc(=O)c2c([N+](=O)[O-])cccc21 | – | – | – | – | – | – | – | – | > 100 µM | – | – | – | – | – | – | – |
| COC(=O)c1cc2ccccc2c2nc3ccccc3c(Cl)c12 | > 100 µM | > 100 µM | > 100 µM | – | – | > 100 µM | > 100 µM | > 100 µM | – | – | – | – | – | – | – | – |
| OC1CSCCSCCCSCCSC1 | – | – | – | – | – | – | – | – | > 100 µM | – | – | – | – | – | – | – |
| NCC(Cc1ccccc1)P(=O)(O)O (centres undefined) | – | – | – | – | – | – | – | – | > 100 µM | – | – | – | – | – | – | – |
| CC1(C)OC2OC(COC(=O)C(c3ccccc3)c3ccccc3)C3OC(C)(C)OC3C2O1 (centres undefined) | – | – | > 100 µM | – | – | > 100 µM | 99.7 µM | > 100 µM | – | > 100 µM | – | – | – | – | – | – |
| O=c1[nH]c(=O)n(C2CC(O)C(O)C(CO)O2)cc1F (centres undefined) | > 100 µM | – | > 100 µM | > 100 µM | > 100 µM | > 100 µM | > 100 µM | > 100 µM | – | – | – | – | – | – | – | – |
| O=[N+]([O-])c1ccc(/C=C\c2ccc3c(c2)OCO3)c([N+](=O)[O-])c1 | – | – | – | – | – | – | – | – | 22.4 µM | – | – | – | – | – | – | – |
| Nc1ncnc2c1ncn2CCOC(c1ccccc1)P(=O)(O)O (centres undefined) | – | > 100 µM | > 100 µM | – | > 100 µM | > 100 µM | – | – | – | – | – | – | – | – | – | – |
| CC(C)=CC(=O)CC(=O)C(=O)NCCNC(=O)C(=O)CC(=O)C=C(C)C | – | > 50 µM | > 50 µM | > 50 µM | > 50 µM | > 50 µM | > 50 µM | > 50 µM | – | – | – | – | – | – | – | – |
| C1CCN2CC3CONC3C2C1 (centres undefined) | – | > 100 µM | > 100 µM | – | > 100 µM | > 100 µM | > 100 µM | > 100 µM | – | – | – | – | – | – | – | – |
| CC1(C)CC(O)CC(C)(C)N1.CC1(C)CC(O)CC(C)(C)N1.CC1(C)CC(O)CC(C)(C)N1.CC1(C)CC(O)CC(C)(C)N1.Cl.[Ti] | > 100 µM | > 100 µM | > 100 µM | > 100 µM | > 100 µM | > 100 µM | – | > 100 µM | – | > 100 µM | > 100 µM | > 100 µM | > 100 µM | > 100 µM | > 100 µM | > 100 µM |
| COc1ccc2nc(-c3ccc(O)cc3)ccc2c1 | – | – | > 100 µM | > 100 µM | > 100 µM | > 100 µM | – | > 100 µM | – | – | – | – | – | – | – | – |
| C1=C(c2ccccc2)C(OC2Oc3ccccc3C=C2c2ccccc2)Oc2ccccc21 (centres undefined) | > 100 µM | > 100 µM | > 100 µM | > 100 µM | > 100 µM | > 100 µM | > 100 µM | > 100 µM | – | – | – | – | – | – | – | – |
| C/C(CC(=O)Nc1cccc(Cl)c1C)=N\N=C(N)N | – | > 100 µM | > 100 µM | > 100 µM | > 100 µM | > 100 µM | > 100 µM | > 100 µM | – | – | – | – | – | – | – | – |
| O=c1c2cccc3cccc(c4n1CCCN=4)c32 | > 100 µM | > 100 µM | > 100 µM | > 100 µM | > 100 µM | > 100 µM | > 100 µM | > 100 µM | – | – | – | – | – | – | – | – |
| O=c1c2ccccc2n2cnc3ccc(NCCNCCO)c1c32 | 8.68 µM | – | 16.4 µM | 26.8 µM | 15.5 µM | 16.9 µM | – | 12.2 µM | 9.61 µM | – | – | – | – | – | – | – |
| Nc1c(C(=O)Nc2ccccc2O)[n+]([O-])c2ccccc2[n+]1[O-] | > 100 µM | > 100 µM | > 100 µM | > 100 µM | > 100 µM | > 100 µM | – | 63.5 µM | – | – | – | – | – | – | – | – |
